From US20090215752A1, “Compounds, preparation and therapeutic use thereof” (priority 2005, published 2009)
Where two headings read alike, the source gives them in different places.

Tests used:
PDE2 = molecular target: T1, PDE2 (Homo sapiens, UniProt O00408); test: Inhibition of PDE2 (radioenzymatic phosphodiesterase assay); type: biochemical
T1 construct: PDE2 was isolated from human platelets, provided by Etablissement Français du Sang-Alsace; tissue Etablissement Français du Sang-Alsace; host or cells: human platelets
Protocol: (§1) 2.1.1. Isolation of Phosphodiesterases from Smooth Muscle A 3 g segment of bovine aortic media cut into pieces with scissors was homogenized with an ultra-turrax then a potter glass/glass homogenizer in 7 volumes by weight of buffer A containing a protease inhibitor cocktail (20 mM Tris-HCl, 0.25 M saccharose, 2 mM magnesium acetate, 1 mM dithiothreitol, 5 mM EGTA, 2000 U/ml aprotinin, 10 mg/l leupeptin and 10 mg/l soya trypsic inhibitor). The homogenizate was centrifuged at 105,000 g for 1 hour. The supernatant was loaded on a DEAE-Sephacel column (15×1.6 cm) pre-equilibrated with buffer B (buffer A without the saccharose, EGTA and protease inhibitors). The column was washed until there was no detectable absorption at 280 nm, then eluted with a linear gradient of NaCl (0-0.5 M) in buffer B. 3-ml fractions were collected and enzyme activity was determined under the conditions described hereinbelow to localize the different enzymes PDE1, PDE3, PDE4 and PDE5 which were aliquoted and frozen at −80° C. (Lugnier et al., Biochem. Phamacol., 1986, 35: 1746-1751). PDE2 was isolated from human platelets, provided by Etablissement Français du Sang-Alsace, according to Kameni Tcheudji J F et al., (J. Mol. Biol. 2001; 310: 181-791), and stored until use at −80° C. in small aliquots.
(§2) Cyclic nucleotide phosphodiesterase activity was determined by a radioenzymatic method using tritium-labelled cyclic GMP or AMP (1 μM) as substrate (Lugnier et al., 1986). ^3H-labelled adenosine or guanosine monophosphate formed by hydrolysis of the radiolabelled cyclic nucleotide was then converted to ^3H-labelled adenosine or guanosine in a second reaction with […] in excess. The nucleoside formed was separated from the nucleotides by anion exchange chromatography. Nucleoside radioactivity was determined by liquid scintillation counting. Enzymatic incubations were carried out under conditions allowing no more than 15% hydrolysis of the substrate; each point was performed in duplicate.
The concentration of substance which inhibits enzymatic activity by 50% (IC50) at 1 μM cyclic AMP was calculated by nonlinear regression from the experimental values of hydrolysis rate (Prism, GraphPad).

5-HT transporter = molecular target: T2, 5-HT transporter (Homo sapiens, UniProt P31645); test: Serotonergic transporter binding ([3H]imipramine); details: [3H]imipramine 2 nM, HEK-293 recombinant, read-out: percentage inhibition at 10 μM of control specific binding to the serotonergic transporter
T2 construct: expressed in transfected cells; host or cells: HEK-293
Protocol: The serotonergic 5-HT transporter was isolated from human recombinant HEK-293 cells according to the method described by Tatsumi et al. (1997), Pharmacological profile of antidepressants and related compounds at human monoamine transporters, Eur. J. Pharmacol., 340: 249-258.
Serotonergic transporter binding was determined by a radioligand method using tritium-labelled imipramine (2 nM) as substrate (Tatsumi et al., 1999). Ligand radioactivity was determined by liquid scintillation counting. Ligand incubations were carried out for thirty minutes at 22° C. The experiment was conducted in duplicate.
The specific ligand binding to the serotonergic transporter was defined as the difference between the total binding and the non specific binding determined in presence of an excess of unlabelled ligand. The results obtained are presented in Table 3 hereinbelow and are expressed as percent of control specific binding and as a percent inhibition of control specific binding obtained in presence of 10 μM of substance.

PDE4 = test: Selectivity: inhibition of PDE4 (radioenzymatic assay); type: biochemical, bovine; details: Table 2; for PDE4 percentage inhibition at 10 μM: 10 μM compound
Protocol: as §1, §2
(§3) The activity of the compounds was evaluated on other phosphodiesterase isoforms, particularly basal state or calmodulin-activated PDE1 from vascular smooth muscle, PDE3, PDE4 and PDE5 from vascular smooth muscle. The results obtained are presented in Tables 1 and 2 hereinbelow and are expressed as the percentage inhibition of enzymatic activity produced by […] of the test compound.

σ receptors = test: Isolated organ bioassay, field-stimulated vas deferens: test for antagonist activity; set-up: species or system guinea pig; details: for Response to (+)SKF-10,047 (1.0 10^−4 M) in the presence of the compound: mean, n=2
Protocol: Segments of guinea pig vas deferens were suspended in 20-ml organ baths containing an oxygenated (95% O2 and 5% CO2) and pre-warmed (37° C.) physiological salt solution of the following composition (in mM): NaCl 118.0, KCl 4.7, MgSO4 1.2, CaCl2 2.5, KH2PO4 1.2, NaHCO3 25.0 and glucose 11.0 (pH 7.4). Yohimbine (1 μM), (−) sulpiride (1 μM), atropine (1 μM) and naloxone (1 μM) were also present throughout the experiments to block the α2-adrenergic, dopamine D2, muscarinic and opioid receptors, respectively. The tissues were connected to force transducers for isometric tension recordings. They were stretched to a resting tension of 0.5 g, allowed to equilibrate for at least 30 min during which time they were washed repeatedly and the tension readjusted. Thereafter, they were stimulated electrically using a constant current stimulator.
The tissues were exposed to a submaximal concentration of the reference agonist (+) SKF-10047 (100 μM) to obtain a control response. After stabilization of the (+) SKF-10047-induced response, increasing concentrations of substance or the reference antagonist rimcazole were added cumulatively. Each concentration was left in contact with the tissues until a stable response was obtained or for a maximum of 15 min. If it occurred, an inhibition of the (+) SKF-10047-induced increase in twitch contraction amplitude by substance indicated an antagonist activity at the σ receptors.
The parameter measured was the maximum change in the twitch contraction amplitude induced by each compound concentration. The results are expressed as a percent variation of the control twitch contraction amplitude (mean values). The effects of substance tested at 1.0 10^−6 M, 3.0 10^−6 M and 1.0 10^−5 M for agonist and antagonist activities at the σ receptors in the guinea pig vas deferens bioassay are summarized in Tables 6-7 where those of the reference compounds are also reported.

PDE3 = molecular target: T3, PDE3 (Bos taurus, UniProt A0A3Q1M1E8); test: Selectivity: inhibition of PDE3 (radioenzymatic assay); type: biochemical, bovine; details: Table 2; 10 μM compound; read-out: PDE3 percentage inhibition at 10 μM
T3 sequence (A0A3Q1M1E8 1-1126): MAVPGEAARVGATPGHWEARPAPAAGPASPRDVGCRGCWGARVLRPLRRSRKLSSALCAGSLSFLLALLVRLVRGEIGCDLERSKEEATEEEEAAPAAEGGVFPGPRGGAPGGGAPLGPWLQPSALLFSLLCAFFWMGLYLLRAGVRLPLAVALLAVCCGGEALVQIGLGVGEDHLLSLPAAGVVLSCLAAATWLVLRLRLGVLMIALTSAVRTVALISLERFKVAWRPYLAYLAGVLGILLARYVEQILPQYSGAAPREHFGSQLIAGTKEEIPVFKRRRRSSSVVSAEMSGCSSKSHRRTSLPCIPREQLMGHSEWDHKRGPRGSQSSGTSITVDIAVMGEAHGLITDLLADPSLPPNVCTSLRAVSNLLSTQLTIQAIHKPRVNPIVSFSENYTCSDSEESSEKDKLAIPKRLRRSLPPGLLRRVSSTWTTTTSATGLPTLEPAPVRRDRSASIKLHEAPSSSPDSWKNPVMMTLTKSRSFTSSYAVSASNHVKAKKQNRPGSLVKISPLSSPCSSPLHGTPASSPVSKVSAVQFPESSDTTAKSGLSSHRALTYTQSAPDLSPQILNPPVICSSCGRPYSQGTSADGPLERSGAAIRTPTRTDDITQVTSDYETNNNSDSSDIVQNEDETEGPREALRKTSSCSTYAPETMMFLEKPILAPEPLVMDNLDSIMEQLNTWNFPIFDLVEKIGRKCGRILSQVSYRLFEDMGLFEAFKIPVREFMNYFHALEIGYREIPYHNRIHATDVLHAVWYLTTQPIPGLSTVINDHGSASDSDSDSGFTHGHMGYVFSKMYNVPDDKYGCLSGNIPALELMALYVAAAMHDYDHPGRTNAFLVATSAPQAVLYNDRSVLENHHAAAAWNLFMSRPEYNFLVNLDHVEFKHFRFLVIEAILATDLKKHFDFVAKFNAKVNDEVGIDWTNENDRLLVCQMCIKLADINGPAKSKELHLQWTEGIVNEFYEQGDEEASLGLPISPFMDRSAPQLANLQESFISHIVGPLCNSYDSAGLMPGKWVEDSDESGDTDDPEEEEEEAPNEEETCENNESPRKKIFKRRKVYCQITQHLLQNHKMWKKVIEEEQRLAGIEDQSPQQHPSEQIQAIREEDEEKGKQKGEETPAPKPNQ
Protocol: as §1, with “PDE2 was isolated from human platelets, provided by Etablissement Français du Sang-Alsace, according to Kameni Tcheudji J F et al., (J. Mol. Biol. 2001; 310: 181-791), and stored until use at −80° C. in small aliquots.” left out
as §2, with “The nucleoside formed was separated from the nucleotides by anion exchange chromatography.” left out, “Enzymatic incubations were carried out under conditions allowing no more than 15% hydrolysis of the substrate; each point was performed in duplicate.” left out
as §3

PDE1 = test: Selectivity: inhibition of PDE1 (radioenzymatic assay); type: biochemical, bovine; details: Table 2; 10 μM compound
Protocol: as §1, with “PDE2 was isolated from human platelets, provided by Etablissement Français du Sang-Alsace, according to Kameni Tcheudji J F et al., (J. Mol. Biol. 2001; 310: 181-791), and stored until use at −80° C. in small aliquots.” left out
as §2, with “The nucleoside formed was separated from the nucleotides by anion exchange chromatography.” left out, “Enzymatic incubations were carried out under conditions allowing no more than 15% hydrolysis of the substrate; each point was performed in duplicate.” left out
as §3

PDE5 = molecular target: T4, PDE5 (Bos taurus, UniProt Q28156); test: Selectivity: inhibition of PDE5 (radioenzymatic assay); type: biochemical, bovine; details: Table 2; 10 μM compound; read-out: PDE5 percentage inhibition at 10 μM
T4 construct: PDE3, PDE4 and PDE5 from vascular smooth muscle; from tissue; host or cells: bovine aortic media (vascular smooth muscle), DEAE-Sephacel fraction
Protocol: as §1, with “PDE2 was isolated from human platelets, provided by Etablissement Français du Sang-Alsace, according to Kameni Tcheudji J F et al., (J. Mol. Biol. 2001; 310: 181-791), and stored until use at −80° C. in small aliquots.” left out
as §2, with “The nucleoside formed was separated from the nucleotides by anion exchange chromatography.” left out, “Enzymatic incubations were carried out under conditions allowing no more than 15% hydrolysis of the substrate; each point was performed in duplicate.” left out
as §3

[1] = read-out: PDE2 percentage inhibition at 10 μM, Table 1, 10 μM compound, 1 μM cyclic AMP
[2] = Table 1, 10 μM compound, 1 μM cyclic AMP, read-out: PDE2 percentage inhibition at 10 μM

T2 sequence (P31645 whole entry): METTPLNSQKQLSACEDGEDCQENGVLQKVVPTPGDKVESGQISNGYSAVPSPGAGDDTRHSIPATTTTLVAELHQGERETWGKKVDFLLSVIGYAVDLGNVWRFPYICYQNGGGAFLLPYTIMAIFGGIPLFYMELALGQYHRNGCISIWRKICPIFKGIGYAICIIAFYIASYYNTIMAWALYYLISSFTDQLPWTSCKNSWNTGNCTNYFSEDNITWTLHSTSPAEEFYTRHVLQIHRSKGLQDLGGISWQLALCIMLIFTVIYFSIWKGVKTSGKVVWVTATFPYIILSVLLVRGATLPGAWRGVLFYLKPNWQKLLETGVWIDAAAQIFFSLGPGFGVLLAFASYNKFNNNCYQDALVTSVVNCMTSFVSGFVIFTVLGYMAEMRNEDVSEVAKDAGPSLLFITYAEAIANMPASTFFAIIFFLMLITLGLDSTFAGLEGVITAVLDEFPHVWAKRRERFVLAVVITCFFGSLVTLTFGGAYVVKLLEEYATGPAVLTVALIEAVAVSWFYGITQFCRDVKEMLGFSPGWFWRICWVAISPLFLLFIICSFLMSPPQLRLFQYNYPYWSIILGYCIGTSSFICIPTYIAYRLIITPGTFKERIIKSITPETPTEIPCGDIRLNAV
T1 sequence (O00408 whole entry): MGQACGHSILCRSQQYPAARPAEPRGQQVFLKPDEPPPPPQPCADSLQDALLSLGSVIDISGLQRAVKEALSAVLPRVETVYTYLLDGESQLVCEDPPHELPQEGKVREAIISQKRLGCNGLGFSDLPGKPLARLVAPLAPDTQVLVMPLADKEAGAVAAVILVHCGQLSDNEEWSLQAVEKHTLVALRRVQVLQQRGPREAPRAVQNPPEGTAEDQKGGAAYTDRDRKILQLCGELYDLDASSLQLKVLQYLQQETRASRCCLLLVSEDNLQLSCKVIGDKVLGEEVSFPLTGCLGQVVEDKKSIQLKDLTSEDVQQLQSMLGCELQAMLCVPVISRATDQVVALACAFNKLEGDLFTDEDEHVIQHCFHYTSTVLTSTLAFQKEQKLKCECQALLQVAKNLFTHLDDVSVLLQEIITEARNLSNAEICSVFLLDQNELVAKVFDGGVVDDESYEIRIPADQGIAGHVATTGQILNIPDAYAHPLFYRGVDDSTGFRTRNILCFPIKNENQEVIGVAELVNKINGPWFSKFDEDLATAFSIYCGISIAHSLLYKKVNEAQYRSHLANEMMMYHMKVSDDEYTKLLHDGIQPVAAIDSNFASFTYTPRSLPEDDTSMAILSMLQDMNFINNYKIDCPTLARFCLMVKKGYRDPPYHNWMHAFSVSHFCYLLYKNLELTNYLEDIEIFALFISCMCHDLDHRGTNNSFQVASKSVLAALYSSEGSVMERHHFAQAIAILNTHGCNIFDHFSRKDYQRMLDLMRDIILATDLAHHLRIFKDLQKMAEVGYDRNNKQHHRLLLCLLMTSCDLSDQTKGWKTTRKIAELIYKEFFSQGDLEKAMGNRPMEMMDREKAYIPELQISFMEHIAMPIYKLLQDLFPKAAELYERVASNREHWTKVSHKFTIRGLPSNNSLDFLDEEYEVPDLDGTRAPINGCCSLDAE

Row | Structure (SMILES) | inhibition at 10 µM (5-HT transporter) [%] | IC50 (PDE2) [nM] | PDE4 percentage inhibition at 10 μM (PDE4) [%] | inhibition at 10 µM (PDE2; [2]) [%] | also measured
1 | COc1cc2c(c(OC)c1-c1cccnc1)C(c1cccc(C#N)c1)=NCC(=O)N2C [Compound 8, 3-(6,8-Dimethoxy-1-methyl-2-oxo-7-pyridin-3-yl-2,3-dihydro-1H-benzo[e][1,4]diazepin-5-yl)-benzonitrile] | 8 | – | – | – | inhibition at 10 µM (PDE2; [1]): 56%
2 | COc1cc2c(c(OC)c1-c1ccccc1)C(c1cccc(C#N)c1)=NCC(=O)N2 [Compound 1, 3-(6,8-Dimethoxy-2-oxo-7-phenyl-2,3-dihydro-1H-benzo[e][1,4]diazepin-5-yl)-benzonitrile] | 5 | 3000 | 43.3 | – | inhibition at 10 µM (PDE2; [1]): 9%; inhibition at 10 µM (PDE2; read-out: PDE2 percentage inhibition at 10 μM, Table 2, 10 μM compound): 9%
3 | C[C@@H]1CN(CCCn2c3ccccc3c3ccccc32)C[C@H](C)N1 [rimcazole] | – | – | – | – | Response to (+)SKF-10,047 (1.0 10^−4 M) in the presence of the compound (σ receptors; compound 1.0 10^−6 M): +111%; Response to (+)SKF-10,047 (1.0 10^−4 M) in the presence of the compound (σ receptors; compound 3.0 10^−6 M): +52%; Effect on the (+) SKF 10,047-induced enhancement of twitch contraction amplitude (in words) (σ receptors; field-stimulated guinea pig vas deferens): inhibited; Response to (+)SKF-10,047 (1.0 10^−4 M) in the presence of the compound (σ receptors; third (highest) concentration, printed 1.0 10^−6 M): −12%
4 | COc1cc2c(c(OC)c1-c1ccccc1)C(c1cccc(C#N)c1)=NCC(=O)N2C [Compound 6, 3-(6,8-Dimethoxy-1-methyl-2-oxo-7-phenyl-2,3-dihydro-1H-benzo[e][1,4]diazepin-5-yl)-benzonitrile] | – | 1800 | 37 | 80 | inhibition at 10 µM (PDE3): 40%
5 | COc1cc2c(c(OC)c1-c1ccc(Cl)cc1)C(c1cccc(C(N)=O)c1)=NCC(=O)N2C [Compound 18] | 0 | – | 66 | 98 | IC50 (PDE2; Table 1, value in square brackets, 1 μM cyclic AMP, read-out: PDE2 IC50): 300 nM; IC50 (PDE4; value in square brackets): 6.5 µM
6 | COc1cc2c(c(OC)c1-c1ccc(Cl)cc1)C(c1cccc(C#N)c1)=NCC(=O)N2C [Compound 7, 3-[7-(4-Chloro-phenyl)-6,8-dimethoxy-1-methyl-2-oxo-2,3-dihydro-1H-benzo[e][1,4]diazepin-5-yl]-benzonitrile] | 16 | 4600 | 41 | 61 | –
7 | COCCCc1cccc(C2=NCC(=O)N(C)c3cc(OC)c(-c4ccccc4)c(OC)c32)c1 [Compound 29, 6,8-Dimethoxy-5-[3-(3-methoxy-propyl)-phenyl]-1-methyl-7-phenyl-1,3-dihydro-benzo[e][1,4]diazepin-2-one] | – | 800 | 49 | 91 | PDE1 percentage inhibition at 10 μM (PDE1): 31%; inhibition at 10 µM (PDE3): 40%; inhibition at 10 µM (PDE5): 19%
8 | COc1cc2c(c(OC)c1-c1ccccc1)C(c1ccccc1)=NCC(=O)N2C [Compound 9, 6,8-Dimethoxy-1-methyl-5,7-diphenyl-1,3-dihydro-benzo[e][1,4]diazepin-2-one] | 1 | – | – | 71 | –
9 | COc1cc2c(c(OC)c1-c1cccnc1)C(c1cccc(C(N)=O)c1)=NCC(=O)N2 [Compound 20, 3-(6,8-Dimethoxy-2-oxo-7-pyridin-3-yl-2,3-dihydro-1H-benzo[e][1,4]diazepin-5-yl)-benzamide] | 16 | – | – | – | PDE2 percentage inhibition at 10 μM (PDE2; Table 1, 10 μM compound, 1 μM cyclic AMP): 68%
10 | COc1cc2c(c(OC)c1-c1ccc(Cl)cc1)C(c1cccc(C#N)c1)=NCC(=O)N2 [Compound 2, 3-[7-(4-Chloro-phenyl)-6,8-dimethoxy-2-oxo-2,3-dihydro-1H-benzo[e][1,4]diazepin-5-yl]-benzonitrile] | 12 | 730 | 58 | 93 | –
